Measured values: patent publication US20240092768A1, “CRYSTAL FORM OF ANTI-INFLUENZA VIRUS COMPOUND, PREPARATION METHOD FOR CRYSTAL FORM, AND USE OF CRYSTAL FORM” (XIZANG HAISCO PHARMACEUTICAL CO., LTD., priority 2021, published 2024)

Key:
[1] = experiment of crystal form transformation in water; format: physicochemical; conditions: room temperature, stirring of magma for 7 days, XRPD
[2] = hygroscopicity experiment, dynamic vapor sorption (DVS); format: physicochemical; conditions: 25° C.
IFVA/Mal/302/54 = assay: cytopathic effect (CPE) antiviral assay in MDCK cells, IFVA/Mal/302/54; format: cell-based, influenza viruses; conditions: 120 h, CPE method, 5 days, CCK-8 cell viability
IFV A/PR/8/34 = assay: cytopathic effect (CPE) antiviral assay in MDCK cells, IFV A/PR/8/34; format: cell-based, influenza viruses; conditions: 120 h, CPE method, 5 days, CCK-8 cell viability
IFVA/Weiss/43 = assay: cytopathic effect (CPE) antiviral assay in MDCK cells, IFVA/Weiss/43; format: cell-based, influenza viruses; conditions: 120 h, CPE method, 5 days, CCK-8 cell viability

For Cc1nnn([C@@H](c2ccccc2)C2CCN(C(=O)c3cc(-c4nc5cc(NC(=O)[C@@H]6C[C@@H]6F)ccc5o4)ccn3)CC2)n1 [crystal form I, (1S,2S)-2-fluoro-N-(2-(2-(4-((R)-(5-methyl-2H-tetrazol-2-yl)(phenyl)methyl)piperidine-1-carbonyl)pyridin-4-yl)benzo[d]oxazol-5-yl)cyclopropane-1-carboxamide], the “crystal form after stirring of magma in water” value [1] was “remained unchanged after the magma” and the “weight change in a range of 0% RH to 80% RH” value [2] was “approximately 0.3%”.

Work on Cc1nnn([C@@H](c2ccccc2)C2CCN(C(=O)c3cc(-c4nc5cc(NC(=O)[C@@H]6C[C@@H]6F)ccc5o4)ccn3)CC2)n1 [Compound A, (1S,2S)-2-fluoro-N-(2-(2-(4-((R)-(5-methyl-2H-tetrazol-2-yl)(phenyl)methyl)piperidine-1-carbonyl)pyridin-4-yl)benzo[d]oxazol-5-yl)cyclopropane-1-carboxamide] yielded an EC50 (IFVA/Mal/302/54) of 14 nM, an EC50 (IFV A/PR/8/34) of 12 nM and an EC50 (IFVA/Weiss/43) of 3 nM. The “weight change in a range of 0% RH to 80% RH” value ([2]; listed as amorphous form of the compound A) was “approximately 3.8%”.
